Measurements reported in US10780090B2, “Heteroaryl compounds useful as inhibitors of SUMO activating enzyme” (Millennium Pharmaceuticals, Inc., priority 2014, dated 2020).

Biological target: recombinant human SAE enzyme (Homo sapiens (Human), UniProt Q9UBT2)
Experiment: SAE HTRF enzyme assay
Assay type: biochemical
Details: for Percent Inhibition: Concentration 0.111 μM; for IC50: class symbols A/B/C
Experimental: Example 215: SAE HTRF enzyme assay
The SAE enzymatic reaction totals 50 μl and contains 50 mM HEPES Hemisodium (pH 7.5), 0.05% BSA, 5 mM MgCl2, 0.5 μM ATP, 250 μM GSH, 0.01 μM Ubc9-GST, 0.125 μM Sumo-Flag and 0.11 nM recombinant human SAE enzyme. The enzymatic reaction mixture, with and without inhibitor, Is incubated at 24° C. for 105 min in a 384-well plate before termination with […] of Stop/Detection buffer (0.1M HEPES Hemisodium pH 7.5, 0.05% Tween20, 20 mM EDTA, 410 mM KF, 0.53 nM Europium-Cryptate labeled monoclonal anti-Flag M2 Antibody (CisBio International) and 8.125 μg/ml PHYCOLINK goat anti-GST allophycocyanin (XL-APC) antibody (Prozyme)). After incubation for 2 hours at 24° C., quantification of FRET is performed on the Pherostar™ (BMG Labtech). Percentage inhibition values at a single concentration or enzyme inhibition (IC50) values are determined from those curves. One skilled in the art will appreciate that the values generated either as percentage inhibition at a single concentration or IC50 values are subject to experimental variation.

recombinant human SAE enzyme, sequence (Q9UBT2 whole entry): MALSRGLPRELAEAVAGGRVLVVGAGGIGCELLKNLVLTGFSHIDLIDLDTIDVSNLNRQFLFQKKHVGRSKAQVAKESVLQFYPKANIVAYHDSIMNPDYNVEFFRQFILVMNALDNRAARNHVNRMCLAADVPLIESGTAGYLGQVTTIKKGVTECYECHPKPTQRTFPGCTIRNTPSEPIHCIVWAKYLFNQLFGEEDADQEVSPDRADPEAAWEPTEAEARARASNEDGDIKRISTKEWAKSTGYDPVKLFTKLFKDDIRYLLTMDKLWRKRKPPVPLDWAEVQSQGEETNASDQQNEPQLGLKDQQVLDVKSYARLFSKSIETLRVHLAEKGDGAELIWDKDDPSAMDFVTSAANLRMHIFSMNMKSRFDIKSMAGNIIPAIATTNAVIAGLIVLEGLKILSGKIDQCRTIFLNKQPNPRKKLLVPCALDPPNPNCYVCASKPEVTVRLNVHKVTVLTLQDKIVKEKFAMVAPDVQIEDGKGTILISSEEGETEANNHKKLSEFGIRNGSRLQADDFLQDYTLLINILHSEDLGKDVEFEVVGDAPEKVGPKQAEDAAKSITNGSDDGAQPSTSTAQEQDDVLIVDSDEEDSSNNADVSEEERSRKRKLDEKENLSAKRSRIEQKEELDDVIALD
recombinant human SAE enzyme, sequence (Q9UBE0 whole entry partner): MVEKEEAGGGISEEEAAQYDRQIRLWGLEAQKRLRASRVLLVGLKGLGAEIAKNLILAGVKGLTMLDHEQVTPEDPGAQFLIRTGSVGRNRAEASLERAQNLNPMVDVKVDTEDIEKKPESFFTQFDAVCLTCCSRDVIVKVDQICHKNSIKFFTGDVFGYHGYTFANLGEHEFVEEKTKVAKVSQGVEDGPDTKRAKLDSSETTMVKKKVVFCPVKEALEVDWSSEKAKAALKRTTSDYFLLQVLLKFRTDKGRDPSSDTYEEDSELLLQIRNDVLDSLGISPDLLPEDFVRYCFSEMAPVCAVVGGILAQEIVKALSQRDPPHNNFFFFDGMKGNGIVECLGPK

## NS(=O)(=O)OCC1CC(Nc2ncncc2C(=O)c2cc(C(O)c3cc(Br)ccc3F)cs2)CC1O (mixture of isomers) [I-19, [(1R,2S,4R)-4-{[5-({4-[(R)-(5-bromo-2-fluorophenyl)(hydroxy)methyl]-2-thienyl}carbonyl)pyrimidin-4-yl]amino}-2-hydroxycyclopentyl]methyl sulfamate and [(1R,2S,4R)-4-{[5-({4-[(S)-(5-bromo-2-fluorophenyl)(hydroxy)methyl]-2-thienyl}carbonyl)pyrimidin-4-yl]amino}-2-hydroxycyclopentyl]methyl sulfamate]
  Percent Inhibition: 100
  IC50: < 0.01 µM

## NC(c1cccc(Br)c1)c1cc(C(=O)c2cncnc2NC2CC(O)C(COS(N)(=O)=O)C2)sc1Cl (mixture of isomers) [I-22, [(1R,2S,4R)-4-{[5-({4-[(R)-amino(3-bromophenyl)methyl]-5-chloro-2-thienyl}carbonyl)pyrimidin-4-yl]amino}-2-hydroxycyclopentyl]methyl sulfamate and [(1R,2S,4R)-4-{[5-({4-[(S)-amino(3-bromophenyl)methyl]-5-chloro-2-thienyl}carbonyl)pyrimidin-4-yl]amino}-2-hydroxycyclopentyl]methyl sulfamate]
  Percent Inhibition: 99
  IC50: < 0.01 µM

## NC(c1cccc(Cl)n1)c1cc(C(=O)c2cncnc2NC2CC(O)C(COS(N)(=O)=O)C2)sc1Cl (mixture of isomers) [I-25, [(1R,2S,4R)-4-{[5-({4-[(S)-amino(6-chloropyridin-2-yl)methyl]-5-chloro-2-thienyl}carbonyl)pyrimidin-4-yl]amino}-2-hydroxycyclopentyl]methyl sulfamate and [(1R,2S,4R)-4-{[5-({4-[(R)-amino(6-chloropyridin-2-yl)methyl]-5-chloro-2-thienyl}carbonyl)pyrimidin-4-yl]amino}-2-hydroxycyclopentyl]methyl sulfamate]
  Percent Inhibition: 98
  IC50: < 0.01 µM

## Cc1sc(C(=O)c2cncnc2N[C@@H]2C[C@H](COS(N)(=O)=O)[C@@H](O)C2)cc1[S@+]([O-])c1cccc(Cl)c1.Cc1sc(C(=O)c2cncnc2N[C@@H]2C[C@H](COS(N)(=O)=O)[C@@H](O)C2)cc1[S@@+]([O-])c1cccc(Cl)c1 (mixture of isomers) [I-28, [(1R,2S,4R)-4-{[5-({4-[(R)-(3-chlorophenyl)sulfinyl]-5-methyl-2-thienyl}carbonyl)pyrimidin-4-yl]amino}-2-hydroxycyclopentyl]methyl sulfamate and [(1R,2S,4R)-4-{[5-({4-[(S)-(3-chlorophenyl)sulfinyl]-5-methyl-2-thienyl}carbonyl)pyrimidin-4-yl]amino}-2-hydroxycyclopentyl]methyl sulfamate]
  Percent Inhibition: 98
  IC50: < 0.01 µM

## NS(=O)(=O)OCC1CC(Nc2ncncc2C(=O)c2cc(C(O)c3cccc(Cl)n3)cs2)CC1O (mixture of isomers) [I-29, [(1R,2S,4R)-4-({5-[{4-[(S)-(6-Chloropyridin-2-yl)(hydroxy)methyl]-2-thienyl}carbonyl)pyrimidin-4-yl]amino}-2-hydroxycyclopentyl]methyl sulfamate and [(1R,2S,4R)-4-{[5-({4-[(R)-(6-Chloropyridin-2-yl)(hydroxy)methyl]-2-thienyl}carbonyl)pyrimidin-4-yl]amino}-2-hydroxycyclopentyl]methyl sulfamate]
  Percent Inhibition: 100
  IC50: < 0.01 µM

## CC(O)(c1cccc(Cl)c1)c1coc(C(=O)c2cncnc2NC2CC(O)C(COS(N)(=O)=O)C2)c1 (mixture of isomers) [I-30, {(1R,2S,4R)-4-[(5-{4-[(1S)-1-(3-chlorophenyl)-1-hydroxyethyl]-2-furoyl}pyrimidin-4-yl)amino]-2-hydroxycyclopentyl}methyl sulfamate and {(1R,2S,4R)-4-[(5-{4-[(1R)-1-(3-chlorophenyl)-1-hydroxyethyl]-2-furoyl}pyrimidin-4-yl)amino]-2-hydroxycyclopentyl}methyl sulfamate]
  Percent Inhibition: 98
  IC50: < 0.01 µM

## NS(=O)(=O)OC[C@H]1C[C@@H](Nc2ncncc2C(=O)c2cc([C@@]3(c4ccccc4)CCCO3)cs2)C[C@@H]1O (mixture of isomers) [I-32, [(1R,2S,4R)-2-hydroxy-4-{[5-({4-[(2S)-2-phenyltetrahydrofuran-2-yl]-2-thienyl}carbonyl)pyrimidin-4-yl]amino}cyclopentyl]methyl sulfamate and [(1R,2S,4R)-2-hydroxy-4-{[5-({4-[(2R)-2-phenyltetrahydrofuran-2-yl]-2-thienyl}carbonyl)pyrimidin-4-yl]amino}cyclopentyl]methyl sulfamate]
  Percent Inhibition: 98
  IC50: < 0.01 µM

## N[C@H](c1cccc(Cl)c1)c1csc(C(=O)c2cncnc2N[C@@H]2C[C@H](COS(N)(=O)=O)[C@@H](O)C2)c1 (mixture of isomers) [I-36, [(1R,2S,4R)-4-{[5-({4-[(R)-amino(3-chlorophenyl)methyl]-2-thienyl}carbonyl)pyrimidin-4-yl]amino}-2-hydroxycyclopentyl]methyl sulfamate and [(1R,2S,4R)-4-{[5-({4-[(S)-amino(3-chlorophenyl)methyl]-2-thienyl}carbonyl)pyrimidin-4-yl]amino}-2-hydroxycyclopentyl]methyl sulfamate]
  Percent Inhibition: 100
  IC50: < 0.01 µM

## NS(=O)(=O)OC[C@H]1C[C@@H](Nc2ncncc2C(=O)c2cc([C@@]3(c4cccc(Cl)c4)CCCN3)cs2)C[C@@H]1O (mixture of isomers) [I-38, [(1R,2S,4R)-4-{[5-({4-[(2S)-2-(3-chlorophenyl)pyrrolidin-2-yl]-2-thienyl}carbonyl)pyrimidin-4-yl]amino}-2-hydroxycyclopentyl]methyl sulfamate and [(1R,2S,4R)-4-{[5-({4-[(2R)-2-(3-chlorophenyl)pyrrolidin-2-yl]-2-thienyl}carbonyl)pyrimidin-4-yl]amino}-2-hydroxycyclopentyl]methyl sulfamate]
  Percent Inhibition: 101
  IC50: < 0.01 µM

## NS(=O)(=O)OC[C@H]1C[C@@H](Nc2ncncc2C(=O)c2cc([C@H](O)c3cccc(Cl)c3F)c(Cl)s2)C[C@@H]1O (mixture of isomers) [I-40, [(1R,2S,4R)-4-{[5-({5-chloro-4-[(R)-(3-chloro-2-fluorophenyl)(hydroxy)methyl]-2-thienyl}carbonyl)pyrimidin-4-yl]amino}-2-hydroxycyclopentyl]methyl sulfamate and [(1R,2S,4R)-4-{[5-({5-chloro-4-[(S)-(3-chloro-2-fluorophenyl)(hydroxy)methyl]-2-thienyl}carbonyl)pyrimidin-4-yl]amino}-2-hydroxycyclopentyl]methyl sulfamate]
  Percent Inhibition: 96
  IC50: < 0.01 µM

## NS(=O)(=O)OC[C@H]1C[C@@H](Nc2ncncc2C(=O)c2cc(Cc3cccc(Cl)c3)c([C@@H]3CCCO3)s2)C[C@@H]1O (mixture of isomers) [I-41, [(1R,2S,4R)-4-{[5-({4-(3-chlorobenzyl)-5-[(2S)-tetrahydrofuran-2-yl]-2-thienyl}carbonyl)pyrimidin-4-yl]amino}-2-hydroxycyclopentyl]methyl sulfamate and [(1R,2S,4R)-4-{[5-({4-(3-chlorobenzyl)-5-[(2R)-tetrahydrofuran-2-yl]-2-thienyl}carbonyl)pyrimidin-4-yl]amino}-2-hydroxycyclopentyl]methyl sulfamate]
  Percent Inhibition: 99
  IC50: < 0.01 µM

## NS(=O)(=O)OC[C@H]1C[C@@H](Nc2ncncc2C(=O)c2cc([C@@H](O)c3cccc(Cl)c3)co2)C[C@@H]1O.NS(=O)(=O)OC[C@H]1C[C@@H](Nc2ncncc2C(=O)c2cc([C@H](O)c3cccc(Cl)c3)co2)C[C@@H]1O (mixture of isomers) [I-42, {(1R,2S,4R)-4-[(5-{4-[(R)-(3-chlorophenyl)(hydroxy)methyl]-2-furoyl}pyrimidin-4-yl)amino]-2-hydroxycyclopentyl}methyl sulfamate and {(1R,2S,4R)-4-[(5-{4-[(S)-(3-chlorophenyl)(hydroxy)methyl]-2-furoyl}pyrimidin-4-yl)amino]-2-hydroxycyclopentyl}methyl sulfamate]
  Percent Inhibition: 98
  IC50: < 0.01 µM

## CN[C@H](c1cccc(Cl)c1)c1csc(C(=O)c2cncnc2N[C@@H]2C[C@H](COS(N)(=O)=O)[C@@H](O)C2)c1 (mixture of isomers) [I-47, [(1R,2S,4R)-4-{[5-({4-[(R)-(3-chlorophenyl)(methylamino)methyl]-2-thienyl}carbonyl)pyrimidin-4-yl]amino}-2-hydroxycyclopentyl]methyl sulfamate and [(1R,2S,4R)-4-{[5-({4-[(S)-(3-chlorophenyl)(methylamino)methyl]-2-thienyl}carbonyl)pyrimidin-4-yl]amino}-2-hydroxycyclopentyl]methyl sulfamate]
  Percent Inhibition: 97
  IC50: < 0.01 µM

## NS(=O)(=O)OCC1CC(Nc2ncncc2C(=O)c2cc(C(O)(CCO)c3cccc(Cl)c3)c(Cl)s2)CC1O (mixture of isomers) [I-49, [(1R,2S,4R)-4-{[5-({5-Chloro-4-[(1S)-1-(3-chlorophenyl)-1,3-dihydroxypropyl]-2-thienyl}carbonyl)pyrimidin-4-yl]amino}-2-hydroxycyclopentyl]methyl sulfamate and [(1R,2S,4R)-4 {[5-({5-Chloro-4[(1R)-1-(3-chlorophenyl)-1,3-dihydroxypropyl]-2-thienyl}carbonyl)pyrimidin-4-yl]amino}-2-hydroxycyclopentyl]methyl sulfamate]
  Percent Inhibition: 98
  IC50: < 0.01 µM
